In patent US20240173432A1, “Compositions and Methods for Treatment of Myotonic Dystrophy Type 1 with CRISPR/SluCas9” (Vertex Pharmaceuticals Incorporated, priority 2021, published 2024):

Experiments:
[1] = system: CAG foci in primary DM1 patient myoblasts; assay: Single-cut screening: CAG foci staining; type: cell-based, human; conditions: single sgRNA; for % of CAG foci positive nuclei (DNA-PKi): DNA-PKi treated
Method in brief: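 Primary DM1 patient myoblasts were PFA-fixed and hybridized with […] (1 ng/μL, 15 min at 80° C) in 30% formamide/2×SSC, followed by anti-MBNL1 immunostaining and Hoechst counterstain. CAG RNA foci were quantified by high-content confocal imaging after single-cut SuCas9 sgRNA editing.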

[2] = system: 3′ UTR of the human DMPK gene; assay: Single-cut screening: indel editing efficiency by Sanger sequencing and ICE analysis in primary DM1 patient myoblasts; type: cell-based; conditions: vehicle-treated samples; for Indel efficiency: single SluCas9 sgRNA RNP in primary DM1 patient myoblasts, Sanger sequencing and ICE analysis
Method in brief: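 Indels were estimated by ICE from Sanger chromatograms of PCR amplicons covering the DMPK 3′ UTR wild-type allele, using only vehicle-treated samples; sgRNAs with R2<0.9 are flagged. Samples came from primary DM1 patient myoblasts (2 × 10^5) harvested 72 h after nucleofection with 30 pmol SluCas9 and 90 pmol single sgRNA RNP.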

[3] = system: CUG foci in primary DM1 patient myoblasts; assay: Single-cut screening: FISH staining of CUG RNA foci; type: cell-based, human; conditions: single sgRNA, primary DM1 patient myoblasts; for % of CUG foci free nuclei (DNA-PKi): DNA-PKi treated
Method in brief: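 CD56-purified primary DM1 patient myoblasts nucleofected with SluCas9:sgRNA RNP (30:90 pmol, single-cut), then DMSO or 3 μM DNA-PK inhibitor for 48 h. At 72 h post-nucleofection, cells fixed and stained for CUG foci with Cy3-PNA(CAG)5 probe (1 ng/μL, 80 °C), co-stained for MBNL1 and Hoechst, imaged by high-content confocal microscopy.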

Row | Substance | % of CAG foci positive nuclei (DNA-PKi) [1] [%] | % of CAG foci positive nuclei (Vehicle) [1] [%] | Indel efficiency [2] [%] | % of CUG foci free nuclei (DNA-PKi) [3] [%] | % of CUG foci free nuclei (Vehicle) [3] [%] | indel efficiency (Sanger sequencing and ICE analysis) ([2]; single-cut, SluCas9 RNP, 72 hrs post nucleofection, wild-type allele)
1 | CGTGGATGGGCAAACTGCAGGC (guide RNA; chemistry not fully specified) [SluD12] | 1.21 | 4.65 | 44 | 23.77 | 17.76 | –
2 | CTAGCggccggggagggagggg (guide RNA; as printed in the source, key not given here) [SluU47] | 2.4 | 1 | 0 | 12.71 | 5.91 | –
3 | CTCAGTGCATCCAAAACGTGGA (guide RNA; chemistry not fully specified) [SluD77] | 3.13 | 1.8 | 17 | 28.94 | 14.94 | –
4 | CTCCACGCACCCCCACCTATCG (guide RNA; chemistry not fully specified) [SluD22] | 1.54 | 0.76 | 21 | 20.98 | 7.86 | –
5 | CTCCGAGAGCAGCGCAAGTGAG (guide RNA; chemistry not fully specified) [SluD52] | 1.57 | 1.26 | 6 | 26.8 | 7.59 | –
6 | CTGCAGTTTGCCCATCCACGTC (guide RNA; chemistry not fully specified) [SluD10] | 1.26 | 2.84 | 18 | 27.41 | 13.43 | –
7 | CTTCGAgccccgttcgccggcc (guide RNA; as printed in the source, key not given here) [SluU61] | 1.46 | 0.9 | 14 | 49.57 | 17.78 | –
8 | CTTGTGCATGACGCCCTGCTCT (listed as DNA, chemistry not fully specified) [SluD32] | 1.31 | 1.43 | 94 | 26.23 | 19.22 | high editing IN4DEL efficiency
9 | CTTTGCGAACCAACGATAGGTG (guide RNA; chemistry not fully specified) [SluD25] | 1.35 | 2.62 | 41 | 32.03 | 26.87 | –
10 | CTTTTATTCGCGAGGGTCGGGG (guide RNA; chemistry not fully specified) [SluD93] | 3.58 | 1.63 | 18 | 26.14 | 11.34 | –
11 | CTTTTGCCAAACCCGCTTTTTC (guide RNA; chemistry not fully specified) [SluD41] | 1.44 | 1.33 | 6 | 37.15 | 8.97 | –
